# Counter-ions that a name gives are not always drawn. Like-named read-outs stand apart in the source and are kept apart here. Non-standard residues stand in square brackets, D forms with d. Residues, ends and D or L forms follow the SMILES beside them. Dopa = N[C@@H](Cc1ccc(O)c(O)c1)C(=O)O
# Key:
# P-gp = test: In-vitro absorption, Caco-2 A-B permeability; assay type: in vitro ADME, human; details: human, Caco-2, pH 7.4, with verapamil 100 μM on both the A and B sides, Caco-2 A-B, in the presence of verapamil
# Description: (§1) Conditions may be adjusted when necessary.
# (§2) D denotes donor and R is receiver. […] V is the volume of the donor or receiver.
# (§3) The test was performed with and without verapamil, which is a permeation inhibitor, and the results are presented in Tables 22 (without verapamil) and 34 (with verapamil).
# [1] = In-vitro absorption, Caco-2 A-B permeability; assay type: in vitro ADME, human; details: human, Caco-2, pH 7.4, Caco-2 A-B, without verapamil; for Papp A→B at 60 min, 10 μM: 1.0E−05M
# Description: as §1, §2, §3
# [2] = In-vitro metabolism of LDAA compounds using liver microsomes; assay type: in vitro ADME, human; details: for half-life at 0.1 μM: pH 7.4, 1.0E−07M, 0.1 mg/mL microsomal protein
# Description: The stability of test compounds in pooled human liver microsomes was determined on 96-well plates, wherein the test compounds were quantified at five time points by HPLC-MS/MS analysis. The assay matrix included mixed gender and a pool of 50 human liver microsomes, wherein the final microsomal protein concentration was 0.1 mg/mL. The test concentration was 0.1 μM with 0.01% DMSO, 0.25% acetonitrile and 0.25% methanol.
# Each test compound was pre-incubated for five minutes with pooled liver microsomes in phosphate buffer (pH 7.4) in a 37° C. shaking water-bath. The reaction was initiated by adding a nicotinamide adenine dinucleotide phosphate (NADPH)-generating system and incubating for 0, 15, 30, 45, and 60 min. The reaction was stopped by transferring the incubation mixture to acetonitrile/methanol. Samples were then mixed and centrifuged, wherein the supernatants were used for HPLC-MS/MS analysis.
# In each assay the four reference compounds propranolol, imipramine, verapamil and terfenadine were tested, wherein the propranolol and the imipramine are known to be relatively stable, while the verapamil and the terfenadine are known to be readily metabolized in human liver microsomes.
# All samples were analyzed by HPLC-MS/MS using selected reaction monitoring. The HPLC system consisted of a binary LC pump with autosampler, a C-18 column, and a gradient. The conditions were adjusted when necessary.
# Peak areas corresponding to the test compound were recorded. The amount of each compound remaining was calculated by comparing the peak area at each time point to time zero. The half-life is calculated from the slope of the initial linear range of the logarithmic curve of compound remaining (%) vs. time, assuming first order kinetics. In addition, the intrinsic clearance (Clint) was calculated from the half-life using the following equation:
# Clint(μL/min/mg protein)=0.693/(t1/2×protein concentration)
# The results of the in-vitro human liver microsome metabolism tests of various LDAA compounds (10^−7M), in their TFA salt forms, are provided in FIG. 1 and in Table 17, which presents the % of the compound remaining at times 0, 15, 30, 45 and 60 minutes, two half-life measurements and the Clint, calculated as detailed above.
# in vitro = details: human
# Description: Caco-2 cells are human intestinal epithelial cells derived from a colorectal adenocarcinoma.
# The assays are performed in both the apical to basolateral (A-B) and the B-A direction. The test compound is prepared at 10 μM in HBSS-HEPES (pH 7.4) with a final DMSO concentration of 1%. The working solution is centrifuged, and the supernatant is added to the donor side. The assay plate is incubated at 37° C. with gentle shaking for 60 min or 40 min for the A-B or B-A assay, respectively. For Pgp substrate assessment, the assays are run with and without 100 μM verapamil on both the A and B sides. For BCRP substrate assessment, the assays are run with and without 10 μM Ko143 on both the A and B sides. For MRP2 substrate assessment, the assays are run with and without 100 μM MK571 on both the A and B sides. Samples are aliquoted from the donor side at time zero and the end point, and from the receiver side at the end point.
# Propranolol (highly permeable), labetalol (moderately permeable), ranitidine (poorly permeable), and colchicine (P-glycoprotein substrate), estrone-3-sulfate (BCRP substrate), or CDCF (MRP2 substrate) are included in each assay.
# Samples are analyzed by HPLC-MS/MS using selected reaction monitoring. The HPLC system consists of a binary LC pump with an autosampler, a C-18 column, and a gradient. Conditions may be adjusted when necessary.
# Fluorescein permeability is assessed in the A-B direction at pH 7.4 on both sides after the permeability assay with the test compound. The cell monolayer with a fluorescein permeability of less than 1.5×10−6 cm/s is considered intact.
# The apparent permeability coefficient (Papp) of the test compound and its recovery are calculated as follows: […]
# A is the surface area of the cell monolayer (0.11 cm^2). C is concentration of the test compound, expressed as peak area. D denotes donor and R is receiver. 0, mid, and end denote time zero, mid-point, and end of the incubation. Δt is the incubation time. V is the volume of the donor or receiver.
# The permeability capabilities of the several LDAA compounds, in their TFA salt form, were determined using the Caco-2 B-A method.
# [3] = Human blood stability test; assay type: in vitro ADME; details: slope of the percentage decrease of remaining compound; substrate 10 μM; 0-60 minutes
# Description: The stability of several LDAA compounds in human blood was tested. The substrate concentration was 10 μM and the incubation time 0, 5, 15, 30 and 60 minutes.
# The results are described in Table 19, wherein the results describe the Ke, i.e., the slope of the percentage decrease of the remaining amount of the compound, measured at each of the above time points, such that the higher the Ke the faster the metabolism.
# [4] = Human liver S9 stability test; assay type: in vitro ADME; details: slope of the percentage decrease of remaining compound; substrate 10 μM; S9 protein 0.2 mg/mL; 0-60 minutes
# Description: The stability of several LDAA compounds, in their TFA salt form, in human liver S9 was tested using commercially available liver S9. The substrate concentration was 10 μM, the S9 protein concentration was 0.2 mg/mL, and the incubation time 0, 5, 15, 30 and 60 minutes.
# The results are described in Table 18, wherein the results describe the Ke, i.e., the slope of the percentage decrease of the remaining amount of the compound, measured at each of the above time points, such that the higher the Ke the faster the metabolism.
# human plasma = test: Protein binding, solid phase extraction (SPE) method; assay type: in vitro ADME; details: 1.0E−05M; SPE sample preparation
# Description: (§4) A solid phase extraction (SPE) method was used to prepare samples for several compounds in the plasma protein binding assay. The following SPE protocols were followed:
# (§5) Sorbent: Waters Oasis MCX 96—well MicroElution Plate—Cat #186001830BA Sample: 200 μL of plasma spiked at 10 μM with test compound. Sample was diluted 1:1 with 4% phosphoric acid in water and mixed for 15 minutes 1) Place Oasis plate on vacuum manifold and set vacuum to 5″ Hg; 2) Condition with 200 μL methanol; 3) Equilibrate with 200 μL water; 4) Load dilute plasma sample; 5) Wash with 200 μL 2% formic acid in water; 6) Wash with 400 μL methanol; and 7) Elute with 100 μL 5% NH4OH in methanol.
# as §5, with “MAX 96-well” for “MCX 96—well”, “plate—Cat #186001829” for “Plate—Cat #186001830BA”, “5% NH4OH” for “2% formic acid”, “2% formic acid” for “5% NH4OH”
# [5] = as above; assay type: in vitro ADME, human; details: human, human plasma, 1.0E−05M, SPE sample preparation
# Description: as §4, §5
# as §5, with “MAX 96-well” for “MCX 96—well”, “plate—Cat #186001829” for “Plate—Cat #186001830BA”, “5% NH4OH” for “2% formic acid”, “2% formic acid” for “5% NH4OH”
# [6] = read-out: Percent Recovery Mean
# [7] = incubation time 0 minutes, 1.0E−07M
# [8] = incubation time 15 minutes, 1.0E−07M
# [9] = incubation time 30 minutes, 1.0E−07M
# [10] = incubation time 45 minutes, 1.0E−07M
# [11] = incubation time 60 minutes, 1.0E−07M
compound,measurement,setting,value
"N[C@@H](Cc1ccc(O)c(O)c1)C(=O)NCC(=O)O [LD-Gly TFA salt, Levodopa Glycine TFA Salt]","recovery at 60 min, 10 μM",P-gp; read-out: Percent Recovery 1st,60%
same,"recovery at 60 min, 10 μM",P-gp; read-out: Percent Recovery 2nd,59%
same,"recovery at 60 min, 10 μM",P-gp; [6],59%
same,"Papp A→B at 60 min, 10 μM",[1]; read-out: Permeability 1st,0.03 ×10⁻⁶ cm/s
same,"Papp A→B at 60 min, 10 μM",[1]; read-out: Permeability 2nd,0.02 ×10⁻⁶ cm/s
same,"recovery at 60 min, 10 μM",[1]; read-out: Percent Recovery 1st,65%
same,"recovery at 60 min, 10 μM",[1]; read-out: Percent Recovery 2nd,62%
same,"recovery at 60 min, 10 μM",[1]; [6],64%
same,half-life at 0.1 μM,"[2]; both sexes, human, pooled human liver microsomes, read-out: Half-Life (minute) 1st",54.5 min
same,half-life at 0.1 μM,"[2]; both sexes, human, pooled human liver microsomes, read-out: Half-Life (minute) 2nd",54.1 min
same,half-life at 0.1 μM,"[2]; both sexes, human, pooled human liver microsomes, read-out: Half-Life (minute) Mean",54 min
same,microsomal CLint at 0.1 μM,"[2]; both sexes, human, pooled human liver microsomes, pH 7.4, calculated from the half-life, 1.0E−07M",128 µL/min/mg
same,% Compound Remaining 1st,[2]; [7],100%
same,% Compound Remaining 2nd,[2]; [7],100%
same,% Compound Remaining Mean,[2]; [7],100%
same,% Compound Remaining 1st,[2]; [8],103.7%
same,% Compound Remaining 2nd,[2]; [8],108.1%
same,% Compound Remaining Mean,[2]; [8],106%
same,% Compound Remaining 1st,[2]; [9],86.7%
same,% Compound Remaining 2nd,[2]; [9],77.9%
same,% Compound Remaining Mean,[2]; [9],82%
same,% Compound Remaining 1st,[2]; [10],57.5%
same,% Compound Remaining 2nd,[2]; [10],56.4%
same,% Compound Remaining Mean,[2]; [10],57%
same,% Compound Remaining 1st,[2]; [11],51.7%
same,% Compound Remaining 2nd,[2]; [11],52.9%
same,% Compound Remaining Mean,[2]; [11],52%
same,"recovery at 40 min, 10 μM","in vitro; Caco-2, pH 7.4, Percent Recovery 1st",93%
same,"recovery at 40 min, 10 μM","in vitro; Caco-2, pH 7.4, Percent Recovery 2nd",78%
same,"recovery at 40 min, 10 μM","in vitro; Caco-2, pH 7.4, Percent Recovery Mean",85%
same,"Papp B→A at 40 min, 10 μM","in vitro; Caco-2, pH 7.4, Permeability 1st",0.38 ×10⁻⁶ cm/s
same,"Papp B→A at 40 min, 10 μM","in vitro; Caco-2, pH 7.4, Permeability 2nd",0.33 ×10⁻⁶ cm/s
same,"Papp B→A at 40 min, 10 μM","in vitro; Caco-2, pH 7.4, Permeability Mean",0.4 ×10⁻⁶ cm/s
"NC(=O)[C@@H](N)Cc1ccc(O)c(O)c1 [LDA (levodopa amide), levodopa amide, reference compound]",Ke,[3],0.0149
same,Ke,[4],−0.0008
"N[C@@H](Cc1ccc(O)c(O)c1)C(=O)N[C@@H](CCC(=O)O)C(=O)O [LD-Glu TFA salt, Levodopa Glutamic Acid TFA Salt] (H-[Dopa]-Glu-OH)",% Protein Bound 1st,human plasma,36.6%
same,% Protein Bound 2nd,human plasma,49.4%
same,% Protein Bound Mean,human plasma,43%
same,recovery at 10 μM,[5]; read-out: % Recovery 1st,110%
same,recovery at 10 μM,[5]; read-out: % Recovery 2nd,115%
same,recovery at 10 μM,[5]; read-out: % Recovery Mean,112%

# From US20220362386A1, “LIQUID COMPOSITIONS COMPRISING A LEVODOPA AMINO ACID CONJUGATE AND USES THEREOF” (NeuroDerm, Ltd., priority 2019, published 2022)
